Measured values reported in BindingDB's records for patent US20240059675 (Boehringer Ingelheim International, 2024).

How the values were obtained:
[1] = molecular target: Glutaminyl-peptide cyclotransferase (Homo sapiens, UniProt Q16769); test: Biochemical QPCT and QPCTL Activity Assay
[2] = molecular target: Glutaminyl-peptide cyclotransferase-like protein (Homo sapiens, UniProt Q9NXS2); test: Biochemical QPCT and QPCTL Activity Assay
Glutaminyl-peptide cyclotransferase-like protein, sequence (Q9NXS2 whole entry): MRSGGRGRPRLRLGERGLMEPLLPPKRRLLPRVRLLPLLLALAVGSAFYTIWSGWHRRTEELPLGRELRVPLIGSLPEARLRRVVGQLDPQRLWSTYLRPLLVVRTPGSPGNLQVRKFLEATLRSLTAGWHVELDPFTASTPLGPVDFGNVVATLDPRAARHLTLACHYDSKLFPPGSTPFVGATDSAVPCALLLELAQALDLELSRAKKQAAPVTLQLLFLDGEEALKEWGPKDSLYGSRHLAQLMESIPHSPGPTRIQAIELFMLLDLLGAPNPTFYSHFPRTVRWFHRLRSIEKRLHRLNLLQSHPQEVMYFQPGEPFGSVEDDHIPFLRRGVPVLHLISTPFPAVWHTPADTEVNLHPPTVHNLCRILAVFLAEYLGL

Glutaminyl-peptide cyclotransferase, sequence (Q16769 whole entry): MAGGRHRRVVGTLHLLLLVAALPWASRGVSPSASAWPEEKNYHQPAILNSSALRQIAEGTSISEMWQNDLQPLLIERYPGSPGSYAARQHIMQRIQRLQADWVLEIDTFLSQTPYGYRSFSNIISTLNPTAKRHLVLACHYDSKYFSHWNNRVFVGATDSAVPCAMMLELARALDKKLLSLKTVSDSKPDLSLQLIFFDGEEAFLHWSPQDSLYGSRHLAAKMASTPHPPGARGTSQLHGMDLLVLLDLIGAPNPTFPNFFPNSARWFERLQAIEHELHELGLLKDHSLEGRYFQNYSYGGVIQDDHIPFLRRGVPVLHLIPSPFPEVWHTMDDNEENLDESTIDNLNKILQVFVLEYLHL

IC50 [2] [nM]	Compound	IC50 [1] [nM]
–	Cn1cnnc1C1(F)CCN(c2c(C#N)ccnc2-c2ccc(F)nc2)CC1 [US20240059675, Example 1]	4
1	Cn1cnnc1C1(F)CCN(c2c(C#N)ccnc2-c2cnc(F)c(OCC3CC3)c2)CC1 [US20240059675, Example 26]	–
2	Cn1cnnc1C1(F)CCN(c2c(C#N)ccnc2-c2cnc3nn(C(C)(C)C(F)(F)F)cc3c2)CC1 [US20240059675, Example 29]	3
